{"source": "patent US20150231162A1", "about": "“FRUCTOSE ABSORPTION INHIBITOR” (Nagaoka Perfumery Co., Ltd., priority 2011, published 2015)"}
{"system": "human colon carcinoma cell line, Caco-2", "assay": "Fructose absorption inhibitory activity in the intestinal tracts (fructose permeation across a Caco-2 monolayer in Transwell inserts)", "format": "cell-based", "conditions": "Dosage 5 μg/ml; 50 mM fructose, 3 h, Caco-2 Transwell", "description": "(§1) Evaluation of fructose absorption inhibitory activity was carried out using the human colon carcinoma cell line, Caco-2 (manufactured by Dainippon Sumitomo Pharma Co., Ltd.) utilized for model experiments of the small intestinal mucosa. […] Caco-2 cells were seeded in a 6-well Transwell Insert (internal area: 4.2 cm2) and subcultured for around 3 weeks, while DMEM medium was replaced once every 3 to 4 days, until the Caco-2 cell density became around 2×10^5 cells/insert. The TEER value was measured before experiments and the state of Caco-2 cells was confirmed. […] Medium in the 6-well Transwell Insert was removed. […] A sample solution of each sample illustrated in Table 1 was added to the insert and each mixture was preincubated for 5 min. […] The TEER values were measured. […] The measurement was carried out three times for each sample illustrated in Table 1. The fructose concentrations of the permeated solutions were measured by an enzymatic method using D-fructose dehydrogenase (derived from Gluconobac sp.) (The concentration of each reagent represents the final concentration, respectively.). […] The fructose absorption inhibitory rate of each compound was determined using the following formula (I). […] As control, measurement was also carried out for gallic acid, ellagic acid, quercetin, (+)-catechin, (−)-epicatechin and (−)-epigallocatechin gallate.", "units": {"Inhibitory Rate": "%"}}
{"molecule": "O=C(O[C@H]1[C@@H]2OC(=O)c3cc(O)c(O)c(O)c3-c3c(cc(O)c(O)c3O)C(=O)OC[C@H]2OC(O)[C@@H]1OC(=O)c1cc(O)c(O)c(O)c1)c1cc(O)c(O)c(O)c1", "note": "(stereo partly shown) [compound 1, Tellimagrandin I]", "Inhibitory Rate": 49}
{"molecule": "O=C(O[C@@H]1O[C@@H]2COC(=O)c3cc(O)c(O)c(O)c3-c3c(cc(O)c(O)c3O)C(=O)O[C@H]2[C@H](OC(=O)c2cc(O)c(O)c(O)c2)[C@H]1O)c1cc(O)c(O)c(O)c1", "note": "[compound 5, 1,3-di-O-galloyl-4,6-HHDP-β-D-glucose]", "Inhibitory Rate": 57}
{"molecule": "O=C(O[C@H]1[C@@H]2OC(=O)c3cc(O)c(O)c(O)c3-c3c4cc(c(O)c3O)Oc3c(cc(O)c(O)c3O)C(=O)O[C@H]3C(O)O[C@@H]5COC(=O)c6cc(O)c(O)c(O)c6-c6c(cc(c(O)c6O)Oc6c(cc(O)c(O)c6O)C(=O)O[C@H]1C(O)O[C@@H]2COC4=O)C(=O)O[C@H]5[C@@H]3OC(=O)c1cc(O)c(O)c(O)c1)c1cc(O)c(O)c(O)c1", "note": "(stereo partly shown) [compound 7, Oenothein B]", "Inhibitory Rate": 63}
{"molecule": "(−)-epigallocatechin gallate [compound 16, reference compound]", "Inhibitory Rate": 28}
{"molecule": "Eugeniflorin D2 [compound 6]", "Inhibitory Rate": 53}
{"system": "human colon carcinoma cell line, Caco-2", "assay": "Fructose absorption inhibitory activity in the intestinal tracts (fructose permeation across a Caco-2 monolayer in Transwell inserts)", "format": "cell-based", "conditions": "Dosage 50 μg/ml; 50 mM fructose, 3 h, Caco-2 Transwell", "description": "as §1", "units": {"Inhibitory Rate": "%"}}
{"molecule": "Oc1cc(O)c2c(c1)O[C@H](c1ccc(O)c(O)c1)[C@@H](O)C2", "note": "[compound 14, (+)-catechin, reference compound]", "Inhibitory Rate": "<10"}
{"molecule": "Oc1cc(O)c2c(c1)O[C@H](c1ccc(O)c(O)c1)[C@H](O)C2", "note": "[compound 15, (−)-epicatechin, reference compound]", "Inhibitory Rate": "<10"}
{"system": "human colon carcinoma cell line, Caco-2", "assay": "Fructose absorption inhibitory activity in the intestinal tracts (fructose permeation across a Caco-2 monolayer in Transwell inserts)", "format": "cell-based", "conditions": "Homo sapiens; Dosage 5 μg/ml; 50 mM fructose, 3 h, Caco-2 Transwell; read-out: Inhibitory Rate", "description": "as §1", "units": {"inhibition at 5 µg/mL": "%"}}
{"molecule": "O=C(OC1O[C@@H]2COC(=O)c3cc(O)c(O)c(O)c3-c3c(cc(O)c(O)c3O)C(=O)O[C@H]2[C@H](OC(=O)c2cc(O)c(O)c(O)c2)[C@H]1OC(=O)c1cc(O)c(O)c(O)c1)c1cc(O)c(O)c(O)c1", "note": "(stereo partly shown) [compound 2, Tellimagrandin II]", "inhibition at 5 µg/mL": 52}
{"molecule": "O=C(O[C@@H]1O[C@@H]2COC(=O)c3cc(O)c(O)c(O)c3-c3c(cc(O)c(O)c3O)C(=O)O[C@H]2[C@H](O)[C@H]1O)c1cc(O)c(O)c(O)c1", "note": "[compound 3, Strictinin]", "inhibition at 5 µg/mL": 43}
{"molecule": "O=C(O[C@@H]1O[C@@H]2COC(=O)c3cc(O)c(O)c(O)c3-c3cc(c(O)c(O)c3O)C(=O)O[C@H]2[C@@H]2OC(=O)c3cc(O)c(O)c(O)c3-c3c(cc(O)c(O)c3O)C(=O)O[C@@H]12)c1cc(O)c(O)c(O)c1", "note": "[compound 4, Casuarictin]", "inhibition at 5 µg/mL": 46}
{"system": "human colon carcinoma cell line, Caco-2", "assay": "Fructose absorption inhibitory activity in the intestinal tracts (fructose permeation across a Caco-2 monolayer in Transwell inserts)", "format": "cell-based", "conditions": "Homo sapiens; Dosage 50 μg/ml; 50 mM fructose, 3 h, Caco-2 Transwell; read-out: Inhibitory Rate", "description": "as §1", "units": {"inhibition at 50 µg/mL": "%"}}
{"molecule": "O=C(O)c1cc(O)c(O)c(O)c1", "note": "[compound 11, Gallic acid, reference compound]", "inhibition at 50 µg/mL": 19}
{"molecule": "O=c1oc2c(O)c(O)cc3c(=O)oc4c(O)c(O)cc1c4c23", "note": "[compound 12, Ellagic acid, reference compound]", "inhibition at 50 µg/mL": 22}
{"molecule": "O=c1c(O)c(-c2ccc(O)c(O)c2)oc2cc(O)cc(O)c12", "note": "[compound 13, Quercetin, reference compound]", "inhibition at 50 µg/mL": 23}
